Values quoted from earlier work, collected in patent US8889725B2, “Sugar-based bait” (Bayer Cropscience AG, priority 2006, dated 2014).

Test system: Tapinoma sessile

Compound: CCOP(=S)(OCC)O/N=C(\C#N)c1ccccc1 [phoxim, O,O-diethylthionophosphoryl-α-oximinophenylacetonitrile]
- control of the ants (baits with 0.05% by weight of phoxim in blackberry syrup or blackberry jam): complete control
- acceptance of the bait by ants (baits with 0.5% to 1% by weight of phoxim): repellent action
